From PMC3351444, “Molecular Evolution of a Peptide GPCR Ligand Driven by Artificial Neural Networks” (PLoS ONE, 2012)
Like-named read-outs stand apart in the source and are kept apart here. Square brackets hold non-standard residues; d marks the D form. Ends that are not written are not given here. Peptide text beside a SMILES is read from it.

How the values were obtained:
[1] = In vitro peptide stability in human serum (RP-HPLC); conditions: for half-life / half-life at 50 µg/mL: human; for half-life: serum; for half-life at 50 µg/mL: human serum, 25% (v/v) in RPMI
human CMKLR1 = molecular target: T1, human CMKLR1 (Homo sapiens, UniProt Q99788); assay: Ca2+ mobilization (CellLux imaging) agonist assay in HEK293A cells expressing CMKLR1 and Gα15; type: cell-based
T1 construct: host or cells: HEK293A (Invitrogen), stably expressing human Gα15
T1 sequence (Q99788 1-373): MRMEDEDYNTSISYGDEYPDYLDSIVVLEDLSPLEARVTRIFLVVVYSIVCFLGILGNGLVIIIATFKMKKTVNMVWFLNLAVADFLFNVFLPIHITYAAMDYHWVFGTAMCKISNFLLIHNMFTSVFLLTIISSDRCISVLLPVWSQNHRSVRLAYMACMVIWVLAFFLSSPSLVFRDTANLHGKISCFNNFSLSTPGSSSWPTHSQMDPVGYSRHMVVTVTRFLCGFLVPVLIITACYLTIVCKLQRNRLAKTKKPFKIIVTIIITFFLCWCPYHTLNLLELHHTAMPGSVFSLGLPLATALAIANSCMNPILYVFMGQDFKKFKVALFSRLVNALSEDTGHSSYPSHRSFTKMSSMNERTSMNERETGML
Protocol: HEK293A cells (Invitrogen) expressing CMKLR1 and Gα15 were seeded at 5*10^4 cells/well in a poly-D-lysine coated 96-well black well/clear bottom plate (BD Falcon) and cultured overnight. From eighteen to twenty-four hours later, cells were loaded with FLUO4-AM (Invitrogen). Then the cells were washed two times with C1 solution (130 mM NaCl, 5 mM KCl, 10 mM HEPES pH 7.4, 2 mM CaCl2, and 10 mM Glucose). After the final wash, a 100 µL of residual volume remained on the cells. Peptides were dissolved in 10% DMSO to a concentration of 1 mM and were diluted in C1 solution with 0.1 % BSA. They were aliquoted as 2x solutions in 96-well plates and were simultaneously transferred by the robotic system within the imager from the ligand plate to the cell plate. […] Fluorescence data was generated in duplicate and experiments were repeated for at least three times. […] For the calculation of concentration-response curves, signals of two wells receiving the same concentration of test substances were averaged and the fluorescence changes of corresponding buffer C1 wells were subtracted. Signals were normalized to background fluorescence. For the calculation of EC50 values, plots of amplitude versus concentrations were prepared in SigmaPlot 11.

[2] = Ca2+ mobilization, CMKLR1, decimal comma
[3] = Ca2+ mobilization, CMKLR1, decimal comma, NR where no EC50 is given, read-out: EC50

| max response (human CMKLR1; [2]) | EC50 (human CMKLR1; [3]) [nM] | Compound | also measured |
| --- | --- | --- | --- |
| 1,61 DF/F0 | 1210 | CC(C)C[C@H](NC(=O)CNC(=O)[C@H](Cc1ccc(O)cc1)NC(=O)[C@H](CC(C)C)NC(=O)[C@H](N)Cc1ccccc1)C(=O)N[C@@H](Cc1ccc(O)cc1)C(=O)N[C@@H](C)C(=O)N[C@@H](Cc1ccccc1)C(=O)N1CCC[C@@H]1C(=O)O [compound 108] (H-[dF]LYGLYAF[dP]-OH; N-terminus assumed) |  |
| 1,77 DF/F0 | 41.3 | FLPGQFAFS-NH2 [compound 3] |  |
| 1,31 DF/F0 | 1880 | C[C@H](NC(=O)[C@@H](Cc1ccccc1)NC(=O)[C@H](CCC(N)=O)NC(=O)CNC(=O)[C@@H]1CCCN1C(=O)[C@@H](Cc1ccc(O)cc1)NC(=O)[C@H](N)Cc1ccc(O)cc1)C(=O)N[C@H](Cc1ccc(O)cc1)C(=O)N[C@H](CO)C(N)=O [compound 8] (H-[dY][dY]PGQ[dF]A[dY][dS]-NH2; N-terminus assumed) |  |
| 0,44 DF/F0 | 18600 | C[C@H](NC(=O)[C@H](Cc1c[nH]c2ccccc12)NC(=O)[C@H](CCC(N)=O)NC(=O)CNC(=O)[C@@H]1CCCN1C(=O)[C@H](Cc1c[nH]c2ccccc12)NC(=O)[C@@H](N)Cc1ccc(O)cc1)C(=O)N[C@H](Cc1ccccc1)C(=O)N[C@@H](CS)C(N)=O [compound 22] (H-YWPGQWA[dF]C-NH2; N-terminus assumed) |  |
| 1,66 DF/F0 |  | CC(C)C[C@H](NC(=O)[C@@H](N)Cc1ccc(O)cc1)C(=O)N1CCC[C@H]1C(=O)NCC(=O)N[C@@H](CCC(N)=O)C(=O)N[C@@H](Cc1ccccc1)C(=O)N[C@H](Cc1ccccc1)C(=O)N[C@@H](Cc1ccccc1)C(=O)N[C@@H](CO)C(N)=O [compound 4] (H-YLPGQF[dF]FS-NH2; N-terminus assumed) |  |

The next lines start with the compound.

| Compound | max response (human CMKLR1; [2]) | EC50 (human CMKLR1; [3]) [nM] | also measured |
| --- | --- | --- | --- |
| CC(C)C[C@H](NC(=O)[C@H](N)Cc1ccc(O)cc1)C(=O)N1CCC[C@H]1C(=O)NCC(=O)N[C@@H](CCC(N)=O)C(=O)N[C@@H](Cc1ccc(O)cc1)C(=O)N[C@@H](C)C(=O)N[C@@H](Cc1ccccc1)C(=O)N[C@@H](CO)C(=O)O (H-[dY]LPGQYAFS-OH) |  |  | half-life [1]: 77 ± 5 min |
| CC(C)C[C@H](NC(=O)[C@H](N)Cc1ccc(O)cc1)C(=O)N1CCC[C@H]1C(=O)NCC(=O)N[C@@H](CCC(N)=O)C(=O)N[C@@H](Cc1ccc(O)cc1)C(=O)N[C@@H](C)C(=O)N[C@@H](Cc1ccccc1)C(=O)N[C@@H](Cc1ccccc1)C(=O)O (H-[dY]LPGQYAFF-OH; N-terminus assumed) |  |  | half-life at 50 µg/mL [1]: 135 ± 39 min |
| CC(C)C[C@H](NC(=O)[C@@H](N)Cc1ccc(O)cc1)C(=O)N1CCC[C@H]1C(=O)NCC(=O)N[C@@H](CCC(N)=O)C(=O)N[C@@H](Cc1ccc(O)cc1)C(=O)N[C@@H](C)C(=O)N[C@@H](Cc1ccccc1)C(=O)N[C@H](CO)C(=O)O (H-YLPGQYAF[dS]-OH; N-terminus assumed) |  |  | half-life at 50 µg/mL [1]: 22 ± 2 min |
| YFPGQFAFG-OH |  |  | half-life at 50 µg/mL [1]: 13 ± 1 min |
| CC(C)C[C@@H](NC(=O)[C@H](N)Cc1ccc(O)cc1)C(=O)N1CCC[C@H]1C(=O)NCC(=O)N[C@@H](CCC(N)=O)C(=O)N[C@@H](Cc1ccccc1)C(=O)N[C@@H](C)C(=O)N[C@@H](Cc1ccccc1)C(=O)N[C@H](CO)C(=O)O [compound 98] |  |  | max response (human CMKLR1): 1,68 DF/F0 |
| YFPGQYAFF-NH2 [compound 1] | 1,47 DF/F0 | 15.2 |  |
| YFPGHFAFS-NH2 |  |  | stability: t1/2 ±SD ([1]; peptide half life in human serum (25% v/v in RPMI, 37°C), HPLC assay, mean of three independent experiments ± SD): 17 ± 4 min |
| C[C@H](NC(=O)[C@H](Cc1ccccc1)NC(=O)[C@H](CCC(N)=O)NC(=O)CNC(=O)[C@@H]1CCCN1C(=O)[C@H](CC(=O)O)NC(=O)[C@H](N)Cc1ccc(O)cc1)C(=O)N[C@@H](Cc1ccccc1)C(=O)N[C@H](CO)C(=O)O [compound 112] (H-[dY]DPGQFAF[dS]-OH; N-terminus assumed) |  |  | max response (human CMKLR1): 1,12 DF/F0 |
| CC(C)C[C@H](NC(=O)[C@@H](N)Cc1ccc(O)cc1)C(=O)N1CCC[C@H]1C(=O)NCC(=O)N[C@@H](CCC(N)=O)C(=O)N[C@@H](Cc1ccc(O)cc1)C(=O)N[C@@H](C)C(=O)N[C@@H](Cc1ccccc1)C(=O)N[C@H](Cc1ccccc1)C(=O)O (H-YLPGQYAF[dF]-OH) |  |  | half-life [1]: 36 ± 4 min |
| CC(C)C[C@H](NC(=O)[C@H](N)Cc1ccc(O)cc1)C(=O)N1CCC[C@H]1C(=O)N[C@H](CO)C(=O)N[C@@H](CCC(N)=O)C(=O)N[C@@H](Cc1ccc(O)cc1)C(=O)N[C@@H](C)C(=O)N[C@@H](Cc1ccccc1)C(=O)N[C@H](Cc1ccccc1)C(=O)O [yLPsQYAFf] (H-[dY]LP[dS]QYAF[dF]-OH; N-terminus assumed) |  |  | EC50 (human CMKLR1): 0.49 ± 0.13 nM |
| YFPGHFAFS-OH [compound 31] |  |  | max response (human CMKLR1): 1,07 DF/F0 |
| WYPGNFAFS-NH2 [compound 16] | 1,47 DF/F0 | 3840 |  |
| C[C@H](NC(=O)[C@H](Cc1ccccc1)NC(=O)[C@H](CCC(N)=O)NC(=O)CNC(=O)[C@@H]1CCCN1C(=O)[C@@H](N)Cc1ccccc1)C(=O)N[C@@H](Cc1ccccc1)C(=O)N[C@H](CO)C(=O)N[C@H](CO)C(=O)O [compound 105] (H-FPGQFAF[dS][dS]-OH; N-terminus assumed) | 1,81 DF/F0 | 611 |  |
| YFPGQFDFS-OH [compound 53] |  |  | max response (human CMKLR1): 0,93 DF/F0 |
| C[C@H](NC(=O)[C@@H](Cc1ccccc1)NC(=O)[C@H](CCC(N)=O)NC(=O)CNC(=O)[C@@H]1CCCN1C(=O)[C@H](Cc1ccccc1)NC(=O)[C@@H](N)Cc1ccc(O)cc1)C(=O)N[C@@H](Cc1c[nH]c2ccccc12)C(=O)N[C@@H](CO)C(N)=O [compound 13] (H-YFPGQ[dF]AWS-NH2; N-terminus assumed) | 1,22 DF/F0 | 3200 |  |
| C[C@H](NC(=O)[C@H](Cc1ccccc1)NC(=O)[C@@H](CCC(N)=O)NC(=O)CNC(=O)[C@H](Cc1ccccc1)NC(=O)[C@H](C)NC(=O)[C@@H](N)Cc1ccccc1)C(=O)N[C@@H](Cc1ccccc1)C(=O)N[C@H](CO)C(=O)O [compound 114] (H-FAFG[dQ]FAF[dS]-OH; N-terminus assumed) | 1,24 DF/F0 | 2440 |  |
| C[C@H](NC(=O)[C@H](Cc1ccccc1)NC(=O)[C@H](CCC(N)=O)NC(=O)CNC(=O)[C@H]1CCCN1C(=O)CNC(=O)[C@@H]1CCCN1)C(=O)N[C@@H](Cc1ccccc1)C(=O)N[C@H](CO)C(=O)O [compound 97] (H-PG[dP]GQFAF[dS]-OH; N-terminus assumed) | 1,72 DF/F0 | 100 |  |
| YFPGHFAFS-NH2 [compound 7] | 1,55 DF/F0 |  |  |
| C[C@@H](NC(=O)[C@H](Cc1ccccc1)NC(=O)[C@H](Cc1ccccc1)NC(=O)[C@@H](CO)NC(=O)[C@@H]1CCCN1C(=O)[C@@H](Cc1ccc(O)cc1)NC(=O)[C@H](N)Cc1ccc(O)cc1)C(=O)N[C@@H](Cc1ccccc1)C(=O)N1CCC[C@H]1C(=O)O [compound 154] (H-[dY][dY]P[dS]FF[dA]FP-OH; N-terminus assumed) |  |  | half-life at 50 µg/mL [1]: 374 min |
| CC(C)C[C@H](NC(=O)[C@H](Cc1ccccc1)NC(=O)[C@H](Cc1ccc(O)cc1)NC(=O)[C@@H]1CCCN1C(=O)[C@H]1CCCN1C(=O)[C@@H]1CCCN1C(=O)[C@H](CC(C)C)NC(=O)[C@H](N)Cc1ccc(O)cc1)C(=O)N[C@H](Cc1ccccc1)C(=O)O [compound 143] (H-[dY]LP[dP]PYFL[dF]-OH; N-terminus assumed) | 1,62 DF/F0 | 139 |  |
| YFPGNFAFS-NH2 [compound 6] | 1,30 DF/F0 |  |  |
